The values below come from ChEMBL document CHEMBL1150051, “Antiviral (RNA) activity of selected Amaryllidaceae isoquinoline constituents and synthesis of related substances” (J Nat Prod, 1992).

Converted amounts (≈) assume the structure as drawn.

The test system of one series is Rift Valley fever virus. Kind of series: Antiviral activity against Rift Valley fever virus infected in african green monkey Vero cells after 6 days by plaque reduction assay. The format is functional, organism-based. As to conditions: vero. (Plaques are areas of infected cells; plaque reduction assays count them against a control.)
The test system of the next series is Punta Toro virus. Nature of the series: Antiviral activity against Punta Toro virus Adames infected in african green monkey Vero cells assessed as inhibition of virus-induced cytopathic effect by MTT assay. It counts as functional, organism-based. For orientation: Damage to the host cells serves as the signal in cytopathic effect assays.
In the next series the test system is Yellow fever virus. Kind of series: Antiviral activity against Yellow fever virus Ashibi infected in african green monkey Vero cells assessed as inhibition of virus-induced cytopathic effect by MTT assay. The format is functional, organism-based.
In another series the test system is dengue virus type 4. Kind of series: Antiviral activity against Dengue virus type 4 infected in african green monkey Vero cells after 6 days by plaque reduction assay. It counts as functional, organism-based.
Series [1] has as its system Sandfly fever Sicilian virus. Kind of series: Antiviral activity against Sandfly fever sicilian virus infected in african green monkey Vero cells assessed as inhibition of virus-induced cytopathic effect by MTT assay. It counts as functional, organism-based. The following applies: for IC50: vero.
Series [2] concerns Japanese encephalitis virus. Nature of the series: Antiviral activity against Japanese encephalitis virus Nakayama infected in african green monkey Vero cells assessed as inhibition of virus-induced cytopathic effect by MTT assay. It counts as functional, organism-based.
The nature of series [3]: Therapeutic index, ratio of TC50 for african green monkey Vero cells to IC50 for Punta toro virus Adames. It counts as cell-based. The following applies: read-out: TI.
Series [4] is described as follows: Therapeutic index, ratio of TC50 for african green monkey Vero cells to IC50 for Japanese encephalitis virus Nakayama. The format is cell-based. The following applies: read-out: TI.
Series [5] can be described thus: Therapeutic index, ratio of TC50 for african green monkey Vero cells to IC50 for Yellow fever virus Ashibi. It counts as cell-based. The following applies: read-out: TI.
The nature of series [6]: Therapeutic index, ratio of TC50 for african green monkey Vero cells to IC50 for Dengue type 4 virus. It counts as cell-based. As to conditions: read-out: TI; call rule not given here.
Setting [7] is: Punta Toro virus, Adames, Vero, read-out: IC50.
Where [8] appears, read: Japanese encephalitis virus, Nakayama, Vero, read-out: IC50.
The mark [9] stands for this setting: Yellow fever virus, Ashibi, Vero, read-out: IC50.
Setting [10] is: Dengue virus, Vero, 144 h, read-out: IC50.

By IC50 is commonly meant the concentration at which inhibition is half-maximal. Turning to `CC(=O)O[C@@H]1[C@H](OC(C)=O)[C@@H](OC(C)=O)C=C2c3cc4c(cc3C(=O)N[C@H]21)OCO4` [LYCORICIDINE TRIACETATE], the IC50 result (in the series with Rift Valley fever virus; in the series with Punta Toro virus (vero); in the series on Yellow fever virus (vero); with dengue virus type 4 (vero); in series [1]; in [2] (vero)) was “Not Active” each time.

With `O=C1N[C@H]2C=C[C@@H](O)[C@H](O)[C@@H]2c2cc3c(cc21)OCO3`, the IC50 entry (in the series on Rift Valley fever virus; in the series with Punta Toro virus (vero); with Yellow fever virus (vero); in [1]; in series [2] (vero)) was “Not Active” throughout.

`CC(=O)Oc1c2c(cc3c1C(=O)N[C@H]1[C@H](OC(C)=O)[C@H](OC(C)=O)[C@@H](OC(C)=O)C[C@@H]31)OCO2`: the IC50 with Punta Toro virus (setting [7]) was determined as 12 µg/mL (≈ 25.1 µM); in series [2] (setting [8]) it was 8.1 µg/mL (≈ 17 µM). Further, the “inhibition (INH)” value (in the series on Yellow fever virus; in series [1]) was 25% throughout. Moreover, the selectivity ratio was found to be 6.4 in series [3] and 3.5 in series [4].

In the case of `CC(=O)O[C@@H]1[C@@H](OC(C)=O)[C@H](O)[C@@H]2c3cc4c(cc3C(=O)N[C@H]2[C@@H]1OC(C)=O)OCO4`, the IC50 entry in the series with Rift Valley fever virus is “Not Active”; in the series on Punta Toro virus (setting [7]), 2.5 µg/mL (≈ 5.74 µM); in the series on Yellow fever virus (setting [9]) it was 2.2 µg/mL (≈ 5.05 µM); in the series with dengue virus type 4 (setting [10]) it was below 5 µg/mL; in series [1], “Not Active”; in series [2] (setting [8]), 4.5 µg/mL (≈ 10.3 µM). Also, the selectivity ratio in series [5] was 3.8; in series [3], 4.2; in series [6], above 20; in [4], 3.6.

As to `O=C1N[C@H]2C=C[C@@H](O)[C@H](OC3CCCCO3)[C@@H]2c2cc3c(cc21)OCO3` (stereo partly drawn), the IC50 entry (with Rift Valley fever virus; in the series with Punta Toro virus (vero); in the series with Yellow fever virus (vero); in series [1]; in series [2] (vero)) was “Not Active” in each case.

As for `CC(=O)O[C@@H]1[C@@H](OC(C)=O)[C@H](OC(C)=O)[C@@H]2c3cc4c(cc3C(=O)N[C@H]2[C@@H]1OC(C)=O)OCO4`, the IC50 entry in the series with Rift Valley fever virus was “Not Active”; in the series with Punta Toro virus (vero), “Not Active”; with Yellow fever virus (setting [9]) it was 262 µg/mL (≈ 549 µM); in series [1], “Not Active”; in [2] (setting [8]), 724 µg/mL (≈ 1520 µM). In addition, the selectivity ratio in series [5] was found to be 3.8; in [4], 2.8.

For the molecule `O=C1N[C@H]2[C@H](O)[C@H](O)[C@@H](O)C[C@@H]2c2cc3c(c(O)c21)OCO3`, the IC50 is 0.008 µg/mL (≈ 0.0259 µM) in the series on Punta Toro virus (setting [7]); below 0.003 µg/mL with Yellow fever virus (setting [9]); 0.015 µg/mL (≈ 0.0485 µM) in the series with dengue virus type 4 (setting [10]); “Not Active” in series [1]; 0.004 µg/mL (≈ 0.0129 µM) in series [2] (setting [8]). Also, the selectivity ratio in [5] is above 8.5; in series [3], 3.3; in series [6], 4.2; in series [4], 5.6.

On to `O=C1N[C@H]2CC=C[C@H](O)[C@@H]2c2cc3c(cc21)OCO3`, for which the concentration for half-maximal inhibition (IC50) result (in the series with Rift Valley fever virus; in the series on Punta Toro virus (vero); in the series with Yellow fever virus (vero); in series [1]; in series [2] (vero)) was “Not Active” each time.

`O=C1N[C@H]2C[C@@H](O)[C@@H](O)[C@H](O)[C@@H]2c2cc3c(cc21)OCO3`: the IC50 entry (in the series on Rift Valley fever virus; with Punta Toro virus (vero); in the series with Yellow fever virus (vero); in series [1]; in [2] (vero)) was “Not Active” each time.
